No end group written: not given here.
How the values were obtained:
TSP-1 [1] = assay: TSP-1 protein by ELISA in peripheral blood mononuclear cells of rGBM subjects; assay type: in vivo, human; settings: all evaluable subjects with rGBM
Source text: (§1) FIG. 10 is a chart showing that VT1021 induces TSP-1 in the circulation and the TME. (A) Bar graph of Tsp-1 protein levels measured by ELISA in circulating MDSCs collected prior to (baseline) and after (induction) treatment with VT1021 from patients who experienced complete or partial response, stable disease, or progressive disease; (B) H&E and immunohistochemical analysis of patient tumor tissue prior to onset (pre) or during treatment with VT1021; (C) Immunohistochemical analysis depicting representative images of high levels of CD36 and CD47.
(§2) The blood samples were collected from GBM subjects in the expansion phase, who were treated by VT1021 at 11.8 mg/kg, twice weekly, by IV infusion. VT1021 levels were measured and analyzed among male and female subjects (FIG. 7). […] CD36 and CD47 levels have been measured by immunohistochemistry assays in the pre-treatment tumor biopsy samples of the GBM subjects (FIG. 9, FIG. 10). Levels of Tsp-1 were measured by ELISA for circulating Tsp-1 levels in the collected blood samples, and by immunohistochemistry for the level of Tsp-1 accumulated in the tumor biopsy samples (FIG. 10). The infiltration of immune and inflammatory cells, specifically, MDSCs, T cells and macrophages, were determined by immunohistochemical analysis of the levels of cell surface markers in the tumor biopsy samples of subjects (FIG. 11).

[2] = system: animal models of ovarian, pancreatic, and breast cancer; assay: Preclinical studies in animal models of cancer; assay type: in vivo; settings: multiple animal models of ovarian
TSP-1 [3] = assay: Immunohistochemistry and pathological examination of pre-treatment and on-study rGBM tumor biopsy; assay type: in vivo, human; settings: subject with rGBM who achieved CR
Source text: as §1, §2

[4] = VT1021 concentration in plasma (pharmacokinetic profile) in the clinical study; assay type: in vivo, human; settings: phase I/II study
Source text: FIG. 2 is a chart showing the pharmacokinetic profile of VT1021 concentration in the plasma of human patients with glioblastoma (red), pancreatic cancer (green), ovarian cancer (blue), other (purple) or not reported (red) over time following the initial administration at time 0. “Others” and “Not reported” refer to subjects enrolled in the clinical trial with solid tumor indications other than GBM, Panc, and Ovarian cancers.
FIG. 7 is a chart showing the pharmacokinetic profile of VT1021 concentration in the plasma of male (solid line) and female (dotted line) glioblastoma patients over time following the initial administration at time 0.
In the “expansion stage” of the VT1021-01 Study, subjects diagnosed with recurrent GBM, pancreatic cancer, ovarian cancer and other solid tumors were enrolled. […] The correlation between days on study and tumor shrinkage versus expression profile of CD36 and CD47 was analyzed (FIG. 4). The general expression profile of CD36 and CD47 has been assessed by IHC on Tumor Tissue Microarrays (TMAs), which contain biopsy samples collected from pancreatic cancer patients. […]
The blood samples were collected from GBM subjects in the expansion phase, who were treated by VT1021 at 11.8 mg/kg, twice weekly, by IV infusion. VT1021 levels were measured and analyzed among male and female subjects (FIG. 7). […]

pancreatic cancer = assay: Phase I/II clinical study: tumor burden, stable disease and days on study in pancreatic cancer (Part 2); assay type: in vivo, human
Experimental: VT1021 was evaluated in a recently completed phase I/II open-label, multicenter, dose escalation (Part 1) and expansion (Part 2) clinical study in advanced, refractory, solid tumors including pancreatic cancer (NCT03364400). Seven subjects with pancreatic cancer were dosed in Part 1 and 32 were dosed in Part 2, 17 of which were considered evaluable as having completed ≥1 cycle of VT1021 treatment and tumor imaging during cycle 2. […] In the “expansion stage” of the VT1021-01 Study, subjects diagnosed with recurrent GBM, pancreatic cancer, ovarian cancer and other solid tumors were enrolled. They were treated with VT1021 at 11.8 mg/kg, twice weekly by IV infusion. The blood samples were collected from the clinical study at pre-treatment, 0, 2, 4, 6 hours post treatment to measure the levels of VT1021 (FIG. 2). The tumor biopsy samples prior to treatment and during treatment were collected from the clinical study to measure expression levels of biomarkers including CD36 and CD47, as well as cell surface markers for immune cell populations in the TME by immunohistochemistry assays (FIG. 3, FIG. 4, FIG. 5). The correlation between days on study and tumor shrinkage versus expression profile of CD36 and CD47 was analyzed (FIG. 4). The general expression profile of CD36 and CD47 has been assessed by IHC on Tumor Tissue Microarrays (TMAs), which contain biopsy samples collected from pancreatic cancer patients. TMAs were purchased from commercial sources, not related to the VT1021-01 clinical study. […] A waterfall plot illustrates changes in tumor burden for 14 subjects in Part 2 with pancreatic cancer with measurable disease.

For “cyclic DWLPK (also: cyclic, mode of cyclisation not given here) [VT1021, 5-amino acid cyclic peptide from prosaposin; Tsp-1-inducing agent]”, the “TSP-1 protein in peripheral blood mononuclear cells (PBMCs)” value (TSP-1 [1]) was “induced”, the anti-tumor activity [2] was “robust anti-tumor activity” and the “TSP-1 in the on-study biopsy” value (TSP-1 [3]) was “TSP-1 induction”. For the same substance, the “tumor cells by pathological examination of the on-study biopsy” value (TSP-1 [3]) was “No tumor cells were detected”, the pharmacokinetic profile ([4]; solid tumors including pancreatic cancer) was “predictable” and the pharmacokinetic profile ([4]; solid tumors including rGBM) was “predictable”. The “subjects with stable disease” value (pancreatic cancer; Part 2 pancreatic cancer, all dually high CD36 and CD47) was 3 subjects, the “subjects with reduction of tumor burden” value (pancreatic cancer; of 14 Part 2 pancreatic cancer subjects with measurable disease, all dually high CD36 and CD47) was 5 subjects and the “average time remained on the study” value (pancreatic cancer; the 5 pancreatic cancer subjects with reduction of tumor burden (dually high)) was 105 days.
